The source of these data is patent publication US20240059673A1, “SUBSTITUTED INDOLE COMPOUNDS” (Gilead Sciences, Inc., priority 2020, published 2024).

In assay [1] the target is T1, TLR7 (Homo sapiens, UniProt Q9NYK1).
T1 construct: lymphocytes, monocytes and dendritic cells that express TLR7, TLR8 and TLR9; endogenous in cells; host or cells: cryopreserved human PBMCs from healthy donors
T1 sequence (Q9NYK1 27-1049): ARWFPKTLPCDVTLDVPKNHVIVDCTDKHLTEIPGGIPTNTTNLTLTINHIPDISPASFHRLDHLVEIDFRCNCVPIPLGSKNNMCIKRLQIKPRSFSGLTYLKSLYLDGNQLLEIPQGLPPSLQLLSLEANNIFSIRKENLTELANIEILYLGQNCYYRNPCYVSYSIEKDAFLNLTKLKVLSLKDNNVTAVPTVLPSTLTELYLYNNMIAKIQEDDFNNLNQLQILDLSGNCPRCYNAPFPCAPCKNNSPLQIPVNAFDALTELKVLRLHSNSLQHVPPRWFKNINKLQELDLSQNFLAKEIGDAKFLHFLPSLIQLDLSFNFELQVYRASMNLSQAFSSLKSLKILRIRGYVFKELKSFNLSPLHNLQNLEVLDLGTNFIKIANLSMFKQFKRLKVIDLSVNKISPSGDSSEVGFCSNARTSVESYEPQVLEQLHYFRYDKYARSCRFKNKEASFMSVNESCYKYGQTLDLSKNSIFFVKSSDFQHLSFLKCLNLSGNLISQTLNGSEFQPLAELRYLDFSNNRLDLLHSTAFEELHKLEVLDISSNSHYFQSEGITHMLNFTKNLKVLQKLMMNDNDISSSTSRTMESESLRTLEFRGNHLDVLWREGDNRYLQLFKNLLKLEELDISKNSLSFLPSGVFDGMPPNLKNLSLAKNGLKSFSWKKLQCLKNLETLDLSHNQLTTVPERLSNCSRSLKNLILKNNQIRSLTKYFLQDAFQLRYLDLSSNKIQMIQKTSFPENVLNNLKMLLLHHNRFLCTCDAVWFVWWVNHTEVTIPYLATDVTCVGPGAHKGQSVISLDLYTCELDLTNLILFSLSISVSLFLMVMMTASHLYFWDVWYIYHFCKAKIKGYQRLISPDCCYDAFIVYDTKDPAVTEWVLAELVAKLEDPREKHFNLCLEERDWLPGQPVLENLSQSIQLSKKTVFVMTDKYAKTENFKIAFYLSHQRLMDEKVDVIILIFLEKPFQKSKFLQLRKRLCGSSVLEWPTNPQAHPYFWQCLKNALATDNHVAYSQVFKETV
In words: Human PBMC cell-based assay, TLR7 agonist stimulation. The note with it: human PBMCs; TLR7 agonist GS-986 400 nM; 6 hours; cytokines (IL-6 and IFNα) in supernatant; Table 2; read-out: TLR-7 EC50. From the text:
(§1) Human Peripheral Blood Mononuclear Cell (PBMC) Cell-Based Assay
(§2) Human peripheral blood mononuclear cells (PBMCs) consist of lymphocytes, monocytes and dendritic cells that express TLR7, TLR8 and TLR9. These cells respond to TLR7, TLR8 and TLR9 ligand stimulation and produce cytokines and chemokines in vitro and in vivo. Human PBMCs are therefore suitable to be used in a cell-based assay to assess the in vitro potency of a TLR 7, 8, and/or 9 antagonist. The result is expected to be more translatable to the pharmacodynamics response in vivo than cell line-based assays.
(§3) Cryopreserved human PBMCs from healthy donors were thawed and resuspended in RPMI-1640 media with L-glutamine (Corning) supplemented with 10% Fetal Bovine Serum (Hyclone) and 1× Penicillin-Streptomycin (Corning). After counting, the cell density was adjusted to 2 million cells/ml and incubated for 1 hour at 37° C., 5% CO2 for recovery. Following the recovery, the cells were plated by adding 50p per well (100,000 cells) to 384-well cell culture plates (Greiner) containing 250 nl of test antagonists in 100% DMSO per well, in a 10 points dose response in quadruplicates. PBMCs were incubated in the presence of test antagonists for one hour at 37° C., 5% CO2 before being stimulated with a TLR7 or TLR9 agonist. GS-986 (Gilead Sciences) was used as the TLR7 agonist at a final concentration of 400 nM. ODN-2216 (InvivoGen) was used as the TLR9 agonist at a final concentration of 3μM. PBMCs were incubated in the presence of the test antagonist and the TLR7 (or TLR9) agonist for an additional 6 hours at 37° C., 5% CO2. At the end of the incubation, the cell culture plates were centrifuged at 500 g for 5 min, and the cell culture supernatant was collected. The level of cytokines (IL-6 and IFNα) in the supernatant was measured by electrochemiluminescence immunoassays (Mesoscale Discovery) following manufacturer's recommended protocols. The level of cytokine measured was plotted against the test antagonist concentration and fitted to a sigmoidal function to determine the EC50, which are shown below in Table 2.

For assay [2], the target named is T2, TLR9 (Homo sapiens, UniProt Q9NR96).
T2 construct: lymphocytes, monocytes and dendritic cells that express TLR7, TLR8 and TLR9; endogenous in cells; host or cells: cryopreserved human PBMCs from healthy donors
T2 sequence (Q9NR96 26-1032): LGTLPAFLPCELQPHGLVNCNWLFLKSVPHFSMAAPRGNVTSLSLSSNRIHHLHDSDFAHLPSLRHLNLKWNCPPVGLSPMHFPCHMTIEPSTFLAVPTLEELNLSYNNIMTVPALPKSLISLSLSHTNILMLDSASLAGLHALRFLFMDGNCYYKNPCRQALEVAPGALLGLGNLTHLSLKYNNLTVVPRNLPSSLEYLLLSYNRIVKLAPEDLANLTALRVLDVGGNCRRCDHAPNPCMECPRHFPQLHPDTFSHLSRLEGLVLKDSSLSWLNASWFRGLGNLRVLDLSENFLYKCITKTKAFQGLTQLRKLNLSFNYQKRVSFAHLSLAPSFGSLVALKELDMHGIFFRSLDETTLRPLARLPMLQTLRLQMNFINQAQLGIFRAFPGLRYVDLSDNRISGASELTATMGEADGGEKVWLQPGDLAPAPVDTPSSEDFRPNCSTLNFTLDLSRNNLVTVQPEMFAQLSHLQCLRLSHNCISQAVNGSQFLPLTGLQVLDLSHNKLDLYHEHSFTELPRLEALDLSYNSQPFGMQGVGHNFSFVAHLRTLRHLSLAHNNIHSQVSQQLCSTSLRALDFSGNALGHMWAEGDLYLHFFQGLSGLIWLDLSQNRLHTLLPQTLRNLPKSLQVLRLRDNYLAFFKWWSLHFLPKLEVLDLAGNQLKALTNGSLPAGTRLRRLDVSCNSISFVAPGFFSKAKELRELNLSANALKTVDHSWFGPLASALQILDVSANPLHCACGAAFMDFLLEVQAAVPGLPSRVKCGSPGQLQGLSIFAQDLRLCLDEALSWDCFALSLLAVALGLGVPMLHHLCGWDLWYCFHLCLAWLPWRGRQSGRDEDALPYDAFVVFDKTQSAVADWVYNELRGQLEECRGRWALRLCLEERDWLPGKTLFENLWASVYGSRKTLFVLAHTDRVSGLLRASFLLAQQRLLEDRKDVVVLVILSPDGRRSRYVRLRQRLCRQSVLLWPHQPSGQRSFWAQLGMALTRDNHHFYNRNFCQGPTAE
Kind of assay: Human PBMC cell-based assay, TLR9 agonist stimulation. The following applies: human PBMCs; TLR9 agonist ODN-2216 3 μM; 6 hours; cytokines (IL-6 and IFNα) in supernatant; Table 2; read-out: TLR-9 EC50.
Source text: as §1, §2, §3

pEC50: −log10 of the molar value. A value given as a limit tells only on which side of the number the result lay.

With `Cc1cc(-c2ccc3c(C)c(-c4cccc(C(=O)N[C@H]5CCNC5)c4)[nH]c3c2)cc(C)n1` [Example 18], the negative-log EC50 (pEC50) (as a rule, −log10 of the EC50, conventionally taken in molar units) in assay [1] is 6.47; in assay [2], 7.01.

As for `Cc1cc(-c2ccc3c(C)c(-c4ccc(N5CCNCC5)nc4)[nH]c3c2)ccn1` [Example 5], the pEC50 in assay [1] was 8.36; in assay [2], 7.16.

On to `Cc1cc(-c2ccc3c(C)c(C4CCN(C(=O)c5cncn5C)CC4)[nH]c3c2)cc(C)n1` [Example 27], for which the negative logarithm of the EC50 (pEC50) was less than 6.00 in assay [1] and 5.47 in assay [2].

Consider `Cc1c(-c2cnc(N3CCNCC3)nc2)[nH]c2cc(-c3cc(C)c4ncnn4c3)ccc12` [Example 3], for which the negative logarithm of the EC50 (pEC50) is 8.57 in assay [1] and 6.77 in assay [2].

With `Cc1cc(-c2ccc3c(C)c(-c4ccc(C(=O)N[C@H]5CCNC5)cc4)[nH]c3c2)cc(C)n1` [Example 20], the pEC50 was 6.54 in assay [1] and 6.61 in assay [2].

Consider `Cc1noc(C)c1-c1ccc2c(C)c(-c3ccc(N4CCNCC4)nc3)[nH]c2c1` [Example 6], for which the values for the pEC50 in assay [1] and in assay [2] were 6.35 and 5.68, respectively.

Regarding `Cc1cc(-c2ccc3c(C)c(-c4ccc(C(=O)N[C@@H]5CCNC5)cc4)[nH]c3c2)cc(C)n1` [Example 19], the pEC50 in assay [1] was 6.48; in assay [2], 6.37.

Regarding `Cc1cc(-c2ccc3c(C)c(C4=CCNCC4)[nH]c3c2)cc(C)n1` [Example 11, 6-(2,6-dimethylpyridin-4-yl)-3-methyl-2-(1,2,3,6-tetrahydropyridin-4-yl)-1H-indole], the pEC50 in assay [1] is 6.16; in assay [2], 7.15.
